Measurements published in patent US12617779B2, “Self degradation-type CDK9 inhibitor prodrug and liposome encapsulating same” (Sumitomo Pharma Co., Ltd., priority 2021, dated 2026).

Experiments:
[1] = Pharmacokinetic test, intravenous solution and liposome formulations in mice (Experimental Example 6); format: in vivo; conditions: female BALB/c mice
Experimental: This was used as a solution formulation.
This was used as a liposome formulation.
Hydrogenated soybean phosphatidylcholine (COATSOME NC-21E, manufactured by NOF CORPORATION, 3.238 g), cholesterol (manufactured by Sigma, 1.160 g) and 1,2-disteroyl-rac-glycero-3-methylpolyoxyethylen 2000 (SUNBRIGHT GS-020, manufactured by NOF CORPORATION, 0.983 g) were dissolved in tert-butyl alcohol (300 mL) warmed to 65° C. The solution was placed in an eggplant flask and frozen in a dry ice-acetone bath, and then the tert-butyl alcohol was removed by evaporation under reduced pressure to give a lipid mixture.
To the above lipid mixture was added to a 250 mM ammonium sulfate solution (100 mL), and the mixture was warmed to 65° C., and dispersed by a homogenizer (ULTRA-TURRAX, manufactured by IKA) to give a crude liposome dispersion. […] The solution was filtered through a 0.22 μm membrane filter to adjust the total lipid concentration to 75 mM (75 μmol/mL). […] The solution was adjusted to pH 5 to 6 with 1 mol/L aqueous sodium hydroxide solution, warmed in a 65° C. water bath for 3 minutes, and ice-cooled. The liposome outer solution was replaced with 10 mM tartrate buffer solution/10% sucrose solution (pH 4) using a dialysis cassette (Slide-A-Lyzer G2 Dialysis Cassettes 20K MWCO, manufactured by Thermo Scientific), followed by filtration through a 0.22 μm membrane filter to adjust the concentration.
The solution formulation or liposome formulation was instantly administered intravenously to 7-week-old female BALB/c mice, and the blood was collected over time from the jugular vein without anesthesia up to 24 hours after administration for the solution formulation administration group and up to 72 hours after administration for the liposome formulation administration group. […] The plasma sample was centrifuged, and the concentrations of the test compound and Alvocidib in the obtained supernatant were determined by LC-MS/MS.

[2] = Evaluation of conversion rate to active form in buffer solution (Experimental Example 1); format: physicochemical; conditions: for Production rate of Alvocidib / Residual rate: 37° C., 25 umol/L in buffer solution; for Stability in buffer solution at pH 5: pH 5, 37° C., up to 2 or 3 hours; for Conversion to Alvocidib at pH 7.4: pH 7.4, 37° C., up to 3 hours
In short: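 Prodrugs were held at 25 umol/L and 37° C in 50 mM citrate (pH 5.0, 5.5) or 50 mM phosphate (pH 6.0–7.4) buffer. Parent remaining and Alvocidib formed were quantified by HPLC at 0, 0.5, 1, 2 and 3 hours.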

CCCN(C[C@H]1CCCCN1)C(=O)Oc1cc(O)c2c(=O)cc(-c3ccccc3Cl)oc2c1[C@H]1CCN(C)C[C@H]1O [Example 6, 2-(2-chlorophenyl)-5-hydroxy-8-[(3S,4R)-3-hydroxy-1-methylpiperidin-4-yl]-4-oxo-4H-1-benzopyran-7-yl {[(2R)-piperidin-2-yl]methyl}propylcarbamate]
Blood retention of liposome formulation compared with the corresponding solution formulation [1]: higher blood retention | Production rate of Alvocidib ([2]; pH5.0, 0 hr): 0.5% | Residual rate ([2]; pH5.0, 0 hr): 99.3% | Stability in buffer solution at pH 5 [2]: stable | Production rate of Alvocidib ([2]; pH5.0, 0.5 hr): 0.9% | Residual rate ([2]; pH5.0, 0.5 hr): 99.1% | Production rate of Alvocidib ([2]; pH5.0, 1 hr): 1.3% | Residual rate ([2]; pH5.0, 1 hr): 98.7% | Production rate of Alvocidib ([2]; pH5.0, 2 hr): 2.0% | Residual rate ([2]; pH5.0, 2 hr): 97.8% | Production rate of Alvocidib ([2]; pH5.0, 3 hr): 2.6% | Residual rate ([2]; pH5.0, 3 hr): 96.8% | Production rate of Alvocidib ([2]; pH5.5, 0 hr): 0.5% | Residual rate ([2]; pH5.5, 0 hr): 99.5% | Production rate of Alvocidib ([2]; pH5.5, 0.5 hr): 1.6% | Residual rate ([2]; pH5.5, 0.5 hr): 98.1% | Production rate of Alvocidib ([2]; pH5.5, 1 hr): 2.5% | Residual rate ([2]; pH5.5, 1 hr): 97.0% | Production rate of Alvocidib ([2]; pH5.5, 2 hr): 4.3% | Residual rate ([2]; pH5.5, 2 hr): 94.2% | Production rate of Alvocidib ([2]; pH5.5, 3 hr): 6.2% | Residual rate ([2]; pH5.5, 3 hr): 91.9% | Production rate of Alvocidib ([2]; pH6.0, 0 hr): 0.6% | Residual rate ([2]; pH6.0, 0 hr): 99.4% | Production rate of Alvocidib ([2]; pH6.0, 0.5 hr): 4.0% | Residual rate ([2]; pH6.0, 0.5 hr): 94.8% | Production rate of Alvocidib ([2]; pH6.0, 1 hr): 7.1% | Residual rate ([2]; pH6.0, 1 hr): 90.7% | Production rate of Alvocidib ([2]; pH6.0, 2 hr): 13.2% | Residual rate ([2]; pH6.0, 2 hr): 82.5% | Production rate of Alvocidib ([2]; pH6.0, 3 hr): 18.6% | Residual rate ([2]; pH6.0, 3 hr): 75.2% | Production rate of Alvocidib ([2]; pH6.5, 0 hr): 0.6% | Residual rate ([2]; pH6.5, 0 hr): 99.4% | Production rate of Alvocidib ([2]; pH6.5, 0.5 hr): 10.1% | Residual rate ([2]; pH6.5, 0.5 hr): 86.6% | Production rate of Alvocidib ([2]; pH6.5, 1 hr): 18.6% | Residual rate ([2]; pH6.5, 1 hr): 75.3% | Production rate of Alvocidib ([2]; pH6.5, 2 hr): 31.9% | Residual rate ([2]; pH6.5, 2 hr): 56.9% | Production rate of Alvocidib ([2]; pH6.5, 3 hr): 42.8% | Residual rate ([2]; pH6.5, 3 hr): 42.3% | Production rate of Alvocidib ([2]; pH7.0, 0 hr): 0.7% | Residual rate ([2]; pH7.0, 0 hr): 99.3% | Production rate of Alvocidib ([2]; pH7.0, 0.5 hr): 27.0% | Residual rate ([2]; pH7.0, 0.5 hr): 63.7% | Production rate of Alvocidib ([2]; pH7.0, 1 hr): 44.4% | Residual rate ([2]; pH7.0, 1 hr): 40.4% | Production rate of Alvocidib ([2]; pH7.0, 2 hr): 62.8% | Residual rate ([2]; pH7.0, 2 hr): 16.1% | Production rate of Alvocidib ([2]; pH7.0, 3 hr): 69.8% | Residual rate ([2]; pH7.0, 3 hr): 6.8% | Production rate of Alvocidib ([2]; pH7.4, 0 hr): 0.9% | Residual rate ([2]; pH7.4, 0 hr): 99.1% | Conversion to Alvocidib at pH 7.4 [2]: rapidly converted to Alvocidib | Production rate of Alvocidib ([2]; pH7.4, 0.5 hr): 47.8% | Residual rate ([2]; pH7.4, 0.5 hr): 36.3% | Production rate of Alvocidib ([2]; pH7.4, 1 hr): 65.7% | Residual rate ([2]; pH7.4, 1 hr): 12.7% | Production rate of Alvocidib ([2]; pH7.4, 2 hr): 73.6% | Residual rate ([2]; pH7.4, 2 hr): 2.7% | Production rate of Alvocidib ([2]; pH7.4, 3 hr): 75.3% | Residual rate ([2]; pH7.4, 3 hr): 0.7%

CN1CC[C@H](c2c(OC(=O)N(CCF)CC3CCCCN3)cc(O)c3c(=O)cc(-c4ccccc4Cl)oc23)[C@H](O)C1 (stereo partly drawn) [Example 11, 2-(2-chlorophenyl)-5-hydroxy-8-[(3S,4R)-3-hydroxy-1-methylpiperidin-4-yl]-4-oxo-4H-1-benzopyran-7-yl (2-fluoroethyl) [(piperidin-2-yl)methyl]carbamate]
Blood retention of liposome formulation compared with the corresponding solution formulation [1]: higher blood retention | Production rate of Alvocidib ([2]; pH5.0, 0 hr): 0.2% | Residual rate ([2]; pH5.0, 0 hr): 83.2% | Stability in buffer solution at pH 5 [2]: stable | Production rate of Alvocidib ([2]; pH5.0, 0.5 hr): 0.9% | Residual rate ([2]; pH5.0, 0.5 hr): 82.7% | Production rate of Alvocidib ([2]; pH5.0, 1 hr): 1.8% | Residual rate ([2]; pH5.0, 1 hr): 81.3% | Production rate of Alvocidib ([2]; pH5.0, 2 hr): 3.3% | Residual rate ([2]; pH5.0, 2 hr): 80.5% | Production rate of Alvocidib ([2]; pH5.0, 3 hr): 4.8% | Residual rate ([2]; pH5.0, 3 hr): 79.1% | Production rate of Alvocidib ([2]; pH5.5, 0 hr): 0.2% | Residual rate ([2]; pH5.5, 0 hr): 83.6% | Production rate of Alvocidib ([2]; pH5.5, 0.5 hr): 2.5% | Residual rate ([2]; pH5.5, 0.5 hr): 81.8% | Production rate of Alvocidib ([2]; pH5.5, 1 hr): 4.8% | Residual rate ([2]; pH5.5, 1 hr): 79.2% | Production rate of Alvocidib ([2]; pH5.5, 2 hr): 9.4% | Residual rate ([2]; pH5.5, 2 hr): 75.0% | Production rate of Alvocidib ([2]; pH5.5, 3 hr): 14.0% | Residual rate ([2]; pH5.5, 3 hr): 70.2% | Production rate of Alvocidib ([2]; pH6.0, 0 hr): 0.3% | Residual rate ([2]; pH6.0, 0 hr): 83.7% | Production rate of Alvocidib ([2]; pH6.0, 0.5 hr): 8.5% | Residual rate ([2]; pH6.0, 0.5 hr): 76.0% | Production rate of Alvocidib ([2]; pH6.0, 1 hr): 16.9% | Residual rate ([2]; pH6.0, 1 hr): 66.6% | Production rate of Alvocidib ([2]; pH6.0, 2 hr): 32.6% | Residual rate ([2]; pH6.0, 2 hr): 49.8% | Production rate of Alvocidib ([2]; pH6.0, 3 hr): 39.4% | Residual rate ([2]; pH6.0, 3 hr): 44.8% | Production rate of Alvocidib ([2]; pH6.5, 0 hr): 0.8% | Residual rate ([2]; pH6.5, 0 hr): 81.4% | Production rate of Alvocidib ([2]; pH6.5, 0.5 hr): 23.6% | Residual rate ([2]; pH6.5, 0.5 hr): 60.4% | Production rate of Alvocidib ([2]; pH6.5, 1 hr): 46.5% | Residual rate ([2]; pH6.5, 1 hr): 35.6% | Production rate of Alvocidib ([2]; pH6.5, 2 hr): 60.2% | Residual rate ([2]; pH6.5, 2 hr): 23.7% | Production rate of Alvocidib ([2]; pH6.5, 3 hr): 62.7% | Residual rate ([2]; pH6.5, 3 hr): 21.4% | Production rate of Alvocidib ([2]; pH7.0, 0 hr): 2.1% | Residual rate ([2]; pH7.0, 0 hr): 80.0% | Production rate of Alvocidib ([2]; pH7.0, 0.5 hr): 53.4% | Residual rate ([2]; pH7.0, 0.5 hr): 30.1% | Production rate of Alvocidib ([2]; pH7.0, 1 hr): 62.1% | Residual rate ([2]; pH7.0, 1 hr): 22.0% | Production rate of Alvocidib ([2]; pH7.0, 2 hr): 67.0% | Residual rate ([2]; pH7.0, 2 hr): 17.1% | Production rate of Alvocidib ([2]; pH7.0, 3 hr): 71.6% | Residual rate ([2]; pH7.0, 3 hr): 12.4% | Production rate of Alvocidib ([2]; pH7.4, 0 hr): 4.6% | Residual rate ([2]; pH7.4, 0 hr): 79.7% | Conversion to Alvocidib at pH 7.4 [2]: rapidly converted to Alvocidib | Production rate of Alvocidib ([2]; pH7.4, 0.5 hr): 68.3% | Residual rate ([2]; pH7.4, 0.5 hr): 16.2% | Production rate of Alvocidib ([2]; pH7.4, 1 hr): 67.0% | Residual rate ([2]; pH7.4, 1 hr): 16.7% | Production rate of Alvocidib ([2]; pH7.4, 2 hr): 67.9% | Residual rate ([2]; pH7.4, 2 hr): 16.2% | Production rate of Alvocidib ([2]; pH7.4, 3 hr): 67.3% | Residual rate ([2]; pH7.4, 3 hr): 15.9%
